In PMC3853768 (Molecular Pain, 2013):
“Also recorded” adds a separate entry of the source. Positions of bridges follow the written chain, without caps; N, C: chain ends. Residues, ends and D or L forms follow the SMILES beside them.

Assays:
[1] = biological target: T1, N-type calcium currents (Cav2.2), mouse DRG neurons (Mus musculus, UniProt O55017); type: cell-based
Cav2.2 channel = conditions: cited from earlier work
[2] = tested on: N-type calcium channels with auxiliary subunits; conditions: cited from earlier work
[3] = tested on: excitatory monosynaptic transmission in the dorsal horn of the spinal cord; conditions: cited from earlier work
naïve mice (C57Bl/6j) [4] = conditions: mouse, in vivo, sc, 2 mg/kg
[5] = biological target: T1, N-type calcium currents (Cav2.2), mouse DRG neurons; type: cell-based; remark: listed apart in the source
naïve mice (C57Bl/6j) [6] = conditions: mouse, in vivo, sc, 2 mg/kg; remark: listed apart in the source
[7] = tested on: CFA-injected mice (C57 Bl6); conditions: mouse, in vivo
[8] = tested on: CFA-injected mice (C57 Bl6); conditions: mouse, in vivo; remark: listed apart in the source
[9] = tested on: N-type VGCCs over the P/Q-type (Cav2.1); conditions: cited from earlier work
mice (C57 Bl6) = conditions: mouse, in vivo, sc
rat = conditions: in vivo, iv; cited from earlier work

T1 sequence (O55017 whole entry): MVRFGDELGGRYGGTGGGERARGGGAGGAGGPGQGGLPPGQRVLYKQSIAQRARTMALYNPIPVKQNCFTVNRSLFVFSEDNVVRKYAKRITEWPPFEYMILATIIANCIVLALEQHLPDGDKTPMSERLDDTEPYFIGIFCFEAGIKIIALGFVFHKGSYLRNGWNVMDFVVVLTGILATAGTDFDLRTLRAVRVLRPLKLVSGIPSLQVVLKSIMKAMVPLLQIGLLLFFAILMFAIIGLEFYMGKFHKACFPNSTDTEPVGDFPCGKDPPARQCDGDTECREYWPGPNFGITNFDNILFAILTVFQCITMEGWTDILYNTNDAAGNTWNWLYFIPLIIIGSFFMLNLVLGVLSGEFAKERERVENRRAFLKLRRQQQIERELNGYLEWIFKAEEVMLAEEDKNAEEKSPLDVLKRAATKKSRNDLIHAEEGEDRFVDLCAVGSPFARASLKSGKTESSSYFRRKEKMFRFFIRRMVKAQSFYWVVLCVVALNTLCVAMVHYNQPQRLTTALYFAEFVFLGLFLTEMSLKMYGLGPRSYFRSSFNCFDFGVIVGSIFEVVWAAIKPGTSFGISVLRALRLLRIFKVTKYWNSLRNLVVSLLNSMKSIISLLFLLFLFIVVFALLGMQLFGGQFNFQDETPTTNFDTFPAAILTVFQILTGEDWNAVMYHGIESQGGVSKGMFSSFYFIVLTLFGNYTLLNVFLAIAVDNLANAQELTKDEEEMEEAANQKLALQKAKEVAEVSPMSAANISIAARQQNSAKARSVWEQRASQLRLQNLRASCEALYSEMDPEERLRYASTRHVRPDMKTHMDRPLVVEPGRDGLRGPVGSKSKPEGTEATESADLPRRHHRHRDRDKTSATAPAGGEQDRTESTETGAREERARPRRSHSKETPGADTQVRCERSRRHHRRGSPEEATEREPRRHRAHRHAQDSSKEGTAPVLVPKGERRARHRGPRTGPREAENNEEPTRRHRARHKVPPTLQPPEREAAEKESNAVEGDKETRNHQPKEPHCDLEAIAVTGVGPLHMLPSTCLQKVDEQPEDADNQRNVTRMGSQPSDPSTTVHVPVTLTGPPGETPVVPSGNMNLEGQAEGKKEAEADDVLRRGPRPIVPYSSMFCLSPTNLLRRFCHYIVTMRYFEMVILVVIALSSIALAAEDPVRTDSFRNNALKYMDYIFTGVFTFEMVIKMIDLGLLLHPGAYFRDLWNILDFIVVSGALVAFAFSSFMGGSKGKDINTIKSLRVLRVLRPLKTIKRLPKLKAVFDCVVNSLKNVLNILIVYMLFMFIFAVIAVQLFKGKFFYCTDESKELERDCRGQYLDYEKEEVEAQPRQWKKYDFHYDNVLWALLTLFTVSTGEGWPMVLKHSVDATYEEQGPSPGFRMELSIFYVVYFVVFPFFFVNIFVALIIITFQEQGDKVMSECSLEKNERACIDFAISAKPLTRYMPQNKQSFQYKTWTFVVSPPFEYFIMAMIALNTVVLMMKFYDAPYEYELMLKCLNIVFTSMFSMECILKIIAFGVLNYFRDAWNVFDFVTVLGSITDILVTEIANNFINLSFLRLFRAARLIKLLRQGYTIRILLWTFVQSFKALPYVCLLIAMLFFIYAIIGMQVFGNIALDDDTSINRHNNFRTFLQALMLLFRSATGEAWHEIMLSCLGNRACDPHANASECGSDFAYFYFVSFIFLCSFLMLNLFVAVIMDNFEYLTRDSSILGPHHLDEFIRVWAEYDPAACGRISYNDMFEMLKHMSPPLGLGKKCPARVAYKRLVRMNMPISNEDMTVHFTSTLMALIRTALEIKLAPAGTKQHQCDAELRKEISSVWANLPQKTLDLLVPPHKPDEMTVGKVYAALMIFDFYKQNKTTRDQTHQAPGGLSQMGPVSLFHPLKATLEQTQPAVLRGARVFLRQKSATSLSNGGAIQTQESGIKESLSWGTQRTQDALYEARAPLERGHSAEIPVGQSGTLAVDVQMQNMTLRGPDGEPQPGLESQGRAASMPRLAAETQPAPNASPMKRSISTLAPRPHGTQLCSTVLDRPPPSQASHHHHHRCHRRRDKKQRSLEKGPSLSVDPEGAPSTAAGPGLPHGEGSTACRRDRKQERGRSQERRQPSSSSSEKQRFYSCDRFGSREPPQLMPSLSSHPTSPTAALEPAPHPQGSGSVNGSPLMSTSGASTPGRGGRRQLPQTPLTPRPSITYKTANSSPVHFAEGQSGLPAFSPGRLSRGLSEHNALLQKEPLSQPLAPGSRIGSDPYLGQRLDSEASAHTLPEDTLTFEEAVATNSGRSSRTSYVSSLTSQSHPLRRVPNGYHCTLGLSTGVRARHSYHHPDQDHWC

## CC(C)C[C@@H]1NC(=O)[C@H](CCCNC(=N)N)NC(=O)[C@@H]2CSSC[C@@H]3NC(=O)[C@H](CO)NC(=O)[C@H](C)NC(=O)CNC(=O)[C@H](CCCCN)NC(=O)CNC(=O)[C@H](CCCCN)NC(=O)[C@@H](N)CSSC[C@H](NC(=O)[C@H](CSSC[C@@H](C(N)=O)NC(=O)[C@H](CCCNC(=N)N)NC(=O)CNC1=O)NC(=O)[C@H](CC(=O)O)NC(=O)[C@H](Cc1ccc(O)cc1)NC(=O)[C@H](CO)NC(=O)[C@H]([C@@H](C)O)NC(=O)[C@H](CCCNC(=N)N)NC(=O)[C@H](CCCNC(=N)N)NC3=O)C(=O)N[C@@H]([C@@H](C)O)C(=O)NCC(=O)N[C@@H](CO)C(=O)N2 [CVIF] (H-CKGKGASCRRTSYDCCTGSCRLGRC-NH2; disulfide 1-16, 8-20, 15-25)
[1]
  reversibility of ICa block: partially reversible; also recorded: Partial recovery
Cav2.2 channel
  inhibition of Cav2.2 channel currents: potently and reversibly inhibited
[2]
  recovery from block in presence of β2a compared to β3 subunits: much greater
[3]
  inhibition of excitatory monosynaptic transmission: reversibly inhibited
naïve mice (C57Bl/6j) [4]
  Rotarod performance, End rate: 17 ± 1.0 rpm
  Rotarod performance, Time to fall: 36 ± 3.0 s
[5]
  maximal inhibition relative to CVID: very similar to that of CVID
naïve mice (C57Bl/6j) [6]
  Grip strength, Peak tension: 121 ± 7.7 g
  Grip strength, Tension/weight: 5.4 ± 0.4

## CSCC[C@@H]1NC(=O)[C@H](CC(C)C)NC(=O)[C@H](CCCCN)NC(=O)[C@H](CO)NC(=O)[C@@H]2CSSC[C@@H]3NC(=O)[C@H](CO)NC(=O)CNC(=O)[C@H](CO)NC(=O)[C@H](CSSC[C@H](N)C(=O)N[C@@H](CCCCN)C(=O)N[C@@H](CO)C(=O)N[C@@H](CCCCN)C(=O)NCC(=O)N[C@@H](C)C(=O)N[C@@H](CCCCN)C(=O)N2)NC(=O)[C@H](CSSC[C@@H](C(N)=O)NC(=O)[C@H](CCCNC(=N)N)NC(=O)CNC(=O)[C@H](C(C)C)NC(=O)[C@H]([C@@H](C)O)NC(=O)CNC(=O)[C@H](CO)NC3=O)NC(=O)[C@H](CC(=O)O)NC(=O)[C@H](Cc2ccc(O)cc2)NC1=O [CVID] (H-CKSKGAKCSKLMYDCCSGSCSGTVGRC-NH2; disulfide 1-16, 8-20, 15-27)
[7]
  effect on automated von Frey measure: both measures appeared to be sensitive to subcutaneous injection of CVID; also recorded: partially reversed
[1]
  Recovery from block: -1 ± 5 % of inhibition
  recovery from block, 30 min: no recovery was observed
  reversibility of ICa block: completely irreversible; also recorded: no recovery was observed
Cav2.2 channel
  reversibility of inhibition: irreversible inhibition
[8]
  ceiling effect: reaching a ceiling effect
  effect on automated von Frey and incapacitance measures: incapacitance: both measures appeared to be sensitive to subcutaneous injection of CVID; also recorded: partially reversed
  reversal of incapacitance at peak time of action (2 h): significant reversal
[8]; sc
  dose at which response reaches a ceiling: 0.2 mg/kg
  peak time of action: 2 h
[9]
  selectivity for N-type VGCCs over P/Q-type: higher selectivity for N-type VGCCs over the P/Q-type (Cav2.1)
  selectivity for N-type calcium channels: high selectivity for N-type calcium channels
Mice (C57 Bl6)
  side-effects after systemic administration: not accompanied by side-effects such as motor deficits or sedation
naïve mice (C57Bl/6j) [4]
  Rotarod performance, End rate: 18 ± 1.4 rpm
  Rotarod performance, Time to fall: 40 ± 4.1 s
[5]
  Log [IC50]: -7.12 ± 0.04
  Maximal Inhibition of ICa: 52 ± 2 % of total
  block of high-voltage activated ICa: block of high-voltage activated ICa
  inhibition of total ICa (Figure 1B): about 40%
  rank order of potency to inhibit N-type calcium currents: least potent
naïve mice (C57Bl/6j) [6]
  Grip strength, Peak tension: 121 ± 5.7 g
  Grip strength, Tension/weight: 5.7 ± 0.3
rat
  antihyperalgesic effects: dose-dependent antihyperalgesic effects
  cardiovascular side effects: without serious cardiovascular side effects

## C[C@@H]1NC(=O)CNC(=O)[C@H](CCCCN)NC(=O)CNC(=O)[C@H](CCCCN)NC(=O)[C@@H](N)CSSC[C@@H]2NC(=O)[C@@H]3CSSC[C@@H](C(N)=O)NC(=O)[C@H](CCCNC(=N)N)NC(=O)CNC(=O)[C@H](CO)NC(=O)[C@H](CCCNC(=N)N)NC(=O)[C@H](CSSC[C@H](NC(=O)[C@H](CO)NC1=O)C(=O)N[C@@H](CCCNC(=N)N)C(=O)N[C@@H](CCCNC(=N)N)C(=O)N[C@@H]([C@@H](C)O)C(=O)N[C@@H](CO)C(=O)N[C@@H](Cc1ccc(O)cc1)C(=O)N[C@@H](CC(=O)O)C(=O)N3)NC(=O)[C@H](CO)NC(=O)CNC(=O)[C@H]([C@@H](C)O)NC2=O [CVIE]
[1]
  recovery from block, 30 min: no recovery was observed
  reversibility of ICa block: completely irreversible; also recorded: no recovery was observed
Cav2.2 channel
  inhibition of Cav2.2 channel currents: potently and reversibly inhibited
[8]
  ceiling effect: not seen with CVIE; also recorded: did not appear to reach a ceiling at the highest dose tested
[8]; sc
  overall significance of AUC data, doses: 2.0 mg/kg
  potency versus CVID (AUC): not CVID at any dose
  reversal of incapacitance relative to another peptide (CVIE vs CVID): did not reveal any significant differences; also recorded: not significantly greater than CVID
[2]
  recovery from block in presence of β2a compared to β3 subunits: much greater
[3]
  inhibition of excitatory monosynaptic transmission: reversibly inhibited
Mice (C57 Bl6)
  side-effects after systemic administration: not accompanied by side-effects such as motor deficits or sedation
naïve mice (C57Bl/6j) [4]
  Rotarod performance, End rate: 17 ± 1.4 rpm
  Rotarod performance, Time to fall: 36 ± 4.1 s
[5]
  maximal inhibition relative to CVID: very similar to that of CVID
  potency at ICa inhibition compared to CVID: more than ten-fold compared to CVID
  rank order of potency to inhibit N-type calcium currents: most potent
naïve mice (C57Bl/6j) [6]
  Grip strength, Peak tension: 121 ± 6.9 g
  Grip strength, Tension/weight: 5.5 ± 0.3
